12 compounds from paper PMC7997579, “Synthetic Lethality in Pancreatic Cancer: Discovery of a New RAD51-BRCA2 Small Molecule Disruptor That Inhibits Homologous Recombination and Synergizes with Olaparib” (Journal of Medicinal Chemistry, 2020) can be followed below.

Data set [1] relates to BxPC3 cells. Briefly: Cell viability assay (CellTiter-Glo), association with olaparib. Format: cell-based, human. The conditions noted are these: BxPC3; for olaparib association (increase of antiproliferative effect of olaparib): one or two doses in the range of the ELISA EC50, concentration not given. An excerpt:
(§1) Our working hypothesis is that compounds disrupting RAD51-BRCA2 interaction should affect HR repair and increase the efficacy of PARPi in treating breast, ovarian, and pancreatic cancer. For its clinical relevance, pancreatic adenocarcinoma was selected as our final model for cell-based experiments, and BxPC3 cells were selected for a straightforward comparison with the previously reported triazole derivatives.[30],[31] BxPC3 is derived from a human adenocarcinoma that expresses fully functional BRCA2.[38] As shown in Table 2 and according to the rationale of our hypothesis, our preliminary screening consisted of verifying the efficacy of compounds in inhibiting cell HR and/or in increasing the antiproliferative effect of olaparib. […] HR activity was assessed by evaluating the recombination rate between two transfected plasmids, using a commercially available assay. […] As for the emissucinic acid-containing compounds (4d, 12d, 18d, 20d–23d, 30d, 31d), one of the reasons for their lower potency in cells might be the general poor permeability, likely related to the ionizable acid moiety. […] We then characterized 35d in additional biophysical and cell-based experiments.
Cell viability was assessed with the CellTiter-Glo luminescent cell viability assay from Promega. For this experiment, 1 × 10^4 cells in 200 μL of culture medium were seeded into each well of a 96-multiwell white body plate and allowed to adhere overnight. After 72 h incubation in the presence of olaparib (10 μM) and the RAD51-BRCA2 disruptors alone or in combination, the plate was allowed to equilibrate at room temperature for 30 min and the CellTiter-Glo reactive was directly added to each well. The plate was kept on a shaker for 10 min to induce cell lysis, and its luminescence was measured with a Fluoroskan Ascent FL reader (Labsystems).

Data set [2] deals with T1, BRC4–RAD51 interaction (Homo sapiens, UniProt Q06609).
T1 construct: purchased Creative Biomart (RAD51); Life Technologies (BRC4 peptide)
T1 sequence (Q06609 1-339): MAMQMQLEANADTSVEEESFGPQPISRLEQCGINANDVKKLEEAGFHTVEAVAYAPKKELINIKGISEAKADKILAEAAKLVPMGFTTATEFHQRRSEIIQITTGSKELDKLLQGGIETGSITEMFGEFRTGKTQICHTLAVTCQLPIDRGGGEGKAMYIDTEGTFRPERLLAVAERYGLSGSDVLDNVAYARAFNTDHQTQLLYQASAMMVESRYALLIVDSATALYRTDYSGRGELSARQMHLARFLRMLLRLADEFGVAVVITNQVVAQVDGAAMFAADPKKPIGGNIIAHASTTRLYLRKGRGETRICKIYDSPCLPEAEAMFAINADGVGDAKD
The data set is described as follows: Competitive biochemical ELISA assay (biotinylated BRC4 peptide vs RAD51). Format: binding. On the procedure:
To investigate the mechanism of action of the new dihydroquinolone pyrazoline derivatives, different biological assays were performed. As a primary screening, the ability of compounds 5d–57d to inhibit RAD51-BRCA2 interaction was investigated with a competitive biochemical ELISA assay against the parent compound 4d (Table 1). This assay is effective in evaluating the ability of new molecules to compete with BRC4 to bind to RAD51.[30] […] 18d–21d, 23d, 25d, 30d, and 31d were active at micromolar range, all very similar to the initial hit. […] The replacement of the aromatic ring A in combination with the substitution of the pyrazoline nitrogen with either propionyl or acetyl chain yielded compounds 33d–51d. […] As expected for PPI disruptors, the SARs of the new series of dihydroquinolone pyrazoline were rather complex to rationalize, with many cliffs and spikes that were difficult to understand. […] Accordingly, 4d, 12d, 18d, 20d–23d, 30d, 31d, 33d–36d, 39d, 45d, and 49d were submitted to cell-based study (Table 2).
Competitive ELISA screening assay using biotinylated BRC4 peptide to disrupt the BRC4–RAD51 interaction was performed by modifying the method described by Rajendra et al.[33] BRC4-biotinylated peptide (N-term biotin-[…] from Life Technologies) was used to coat 384-well plates (Nunc). After washing with PBS containing 0.05% Tween-20 (PBST) and blocking with the solution BSA 1% /PBST, overnight hybridization with human RAD51 protein (NP_002866 Creative Biomart, NY) was performed. Test compounds were added in dose response from 0.01 to 100 μM in triplicate with constant DMSO 1%. Antibody raised against RAD51 (Millipore) and HRP-secondary antibody staining to develop the 3,3′,5,5′-tetramethylbenzidine signal (Sigma) quenched with 1 M HCl was used as the assay readout. Colorimetric measure was read on a Victor5 (PerkinElmer) plate reader. BRC4 and Rad51 were included in the assay as positive control. Results were analyzed by using GraphPad software.

The test system of data set [3] is homologous recombination in BxPC3 cells. Briefly: Homologous recombination assay (two-plasmid recombination, real-time PCR). The following applies: for HR inhibition (in words): BxPC3, one or two doses in the range of the ELISA EC50, NDD = not dose-dependent. The class given is cell-based, human.
Excerpt: as §1
Homologous recombination (HR) was assessed by using a commercially available assay (Norgen). This assay is based on cell transfection with two plasmids that, upon cell entry, recombine. The efficiency of HR can be assessed by real-time PCR, using primer mixtures included in the assay kit. Different primer mixtures allow one to discriminate between the original plasmid backbones and their recombination product.
BxPC3 cells (2 × 10^5 per well) were seeded in a 24-well plate and allowed to adhere overnight. Co-transfection with the two plasmids was performed in Lipofectamine 2000 (Invitrogen) according to the manufacturer’s instructions. During transfection (5 h), cells were exposed to different doses of RAD51-BRCA2 disruptors, dissolved in RPMI in the presence of 0.6% DMSO. After washing with PBS, cells were harvested, and DNA was isolated using Illustra Tissue and Cell Genomic Prep Mini Spin kit (GE Healthcare). Sample concentration was measured using an ONDA Nano Genius photometer. The efficiency of HR was assessed by real-time PCR, using 25 ng of template, the primer mixtures included in the assay kit and following the protocol indicated by the manufacturer. Data analysis was based on the ΔΔCt method: [recombination product/backbone plasmids]^treated versus [recombination product/backbone plasmids]^control.

Data set [4] is described as follows: Solubility (as observed in cell culture media / stated). Format: physicochemical. The following applies: cell culture media.
Where [5] appears, read: Table 2, compounds selected for cell-based study, read-out: EC50 ELISA.
The mark [6] stands for this setting: competition with BRC4 for RAD51, triplicate, ± standard deviation, NA = not active, racemic mixtures unless enantiomer named, read-out: EC50 (μM) on ELISA assay.

Read-outs that look alike come from different tables or passages of the source.

As to `O=C(O)CCC(=O)N1N=C(c2c(-c3ccccc3)c3cc(Cl)ccc3[nH]c2=O)CC1c1ccc(Br)cc1` (stereo not drawn) [Compound 12d, 4-(5-(4-Bromophenyl)-3-(6-chloro-2-oxo-4-phenyl-1,2-dihydroquinolin-3-yl)-4,5-dihydro-1H-pyrazol-1-yl)-4-oxobutanoic Acid], the “olaparib association (increase of antiproliferative effect of olaparib)” value in data set [1] is listed as “olaparib association = not present”. The EC50 in data set [2] (setting [5]) and in data set [2] (setting [6]) was 16 ± 2 µM throughout. The “HR inhibition (in words)” value in data set [3] was “HR inhibition = not present”.
As to `O=C(O)CCC(=O)N1N=C(c2c(-c3ccccc3)c3cc(Cl)ccc3[nH]c2=O)CC1c1ccc(-c2ccc(F)cc2)cc1` (stereo not drawn) [Compound 18d, 4-(3-(6-Chloro-2-oxo-4-phenyl-1,2-dihydroquinolin-3-yl)-5-(4′-fluoro-[1,1′-biphenyl]-4-yl)-4,5-dihydro-1H-pyrazol-1-yl)-4-oxobutanoic Acid], the “olaparib association (increase of antiproliferative effect of olaparib)” value in data set [1] is on record as “olaparib association = not present”. The EC50 in data set [2] (setting [5]) and in data set [2] (setting [6]) was 13 ± 1 µM throughout.
As for `O=C(O)CCC(=O)N1N=C(c2c(-c3ccccc3)c3cc(Cl)ccc3[nH]c2=O)CC1c1ccc(-c2ccc(Br)cc2)cc1` (stereo not drawn) [Compound 20d], the “olaparib association (increase of antiproliferative effect of olaparib)” value in data set [1] is recorded as “olaparib association = not present”. The EC50 in data set [2] (setting [5]) and in data set [2] (setting [6]) was 20 ± 2 µM throughout.
In the case of `COc1ccc(-c2ccc(C3CC(c4c(-c5ccccc5)c5cc(Cl)ccc5[nH]c4=O)=NN3C(=O)CCC(=O)O)cc2)cc1` (stereo not drawn) [Compound 21d, 4-(3-(6-Chloro-2-oxo-4-phenyl-1,2-dihydroquinolin-3-yl)-5-(4′-methoxy-[1,1′-biphenyl]-4-yl)-4,5-dihydro-1H-pyrazol-1-yl)-4-oxobutanoic Acid], the EC50 in data set [2] (setting [5]) and in data set [2] (setting [6]) was 20 ± 4 µM each time. The “solubility in cell culture media” value in data set [4] is given as “poor solubility”.
Consider `Cn1ccc2cc(C3CC(c4c(-c5ccccc5)c5cc(Cl)ccc5[nH]c4=O)=NN3C(=O)CCC(=O)O)ccc21` (stereo not drawn) [Compound 22d, 4-(3-(6-Chloro-2-oxo-4-phenyl-1,2-dihydroquinolin-3-yl)-5-(1-methyl-1H-indol-5-yl)-4,5-dihydro-1H-pyrazol-1-yl)-4-oxobutanoic Acid], for which the olaparib association entry in data set [1] (at 5 μM) is on record as “olaparib association = not present at 5 μM”. Besides, the EC50 in data set [2] (setting [5]) and in data set [2] (setting [6]) was 2 ± 0.5 µM throughout. Also, in data set [3], the “HR inhibition (in words)” value was “HR inhibition = not present”.
With `CCn1ccc2cc(C3CC(c4c(-c5ccccc5)c5cc(Cl)ccc5[nH]c4=O)=NN3C(=O)CCC(=O)O)ccc21` (stereo not drawn) [Compound 23d, 4-(3-(6-Chloro-2-oxo-4-phenyl-1,2-dihydroquinolin-3-yl)-5-(1-ethyl-1H-indol-5-yl)-4,5-dihydro-1H-pyrazol-1-yl)-4-oxobutanoic Acid], the “olaparib association (increase of antiproliferative effect of olaparib)” value in data set [1] was “olaparib association = not present”. Moreover, the half-maximal effective concentration (EC50) in data set [2] (setting [5]) and in data set [2] (setting [6]) was 10 ± 2 µM in each case.
On to `CCn1cc2cc(-c3ccc(C4CC(c5c(-c6ccccc6)c6cc(Cl)ccc6[nH]c5=O)=NN4C(=O)CCC(=O)O)cc3)ccc2n1` (stereo not drawn) [Compound 31d, 4-(3-(6-Chloro-2-oxo-4-phenyl-1,2-dihydroquinolin-3-yl)-5-(4-(2-ethyl-2H-indazol-5-yl)phenyl)-4,5-dihydro-1H-pyrazol-1-yl)-4-oxobutanoic Acid], for which, in data set [1] (at 20 μM), the olaparib association result is “olaparib association = present at 20 μM”. In addition, the EC50 in data set [2] (setting [5]) and in data set [2] (setting [6]) was 17 ± 4 µM each time. The “HR inhibition (in words)” value in data set [3] was “HR inhibition = NDD ^b”.
Regarding `CCC(=O)N1N=C(c2c(-c3ccccc3)c3cc(Cl)ccc3[nH]c2=O)CC1c1ccc(Cl)cc1` (stereo not drawn) [Compound 33d, 6-Chloro-3-(5-(4-chlorophenyl)-1-propionyl-4,5-dihydro-1H-pyrazol-3-yl)-4-phenylquinolin-2(1H)-one], the “olaparib association (increase of antiproliferative effect of olaparib)” value in data set [1] was “olaparib association = not present”. Further, the EC50 in data set [2] (setting [5]) and in data set [2] (setting [6]) was 8 ± 2 µM throughout. Further, the “HR inhibition (in words)” value in data set [3] is “HR inhibition = not present”.
In the case of `CC(=O)N1N=C(c2c(-c3ccccc3)c3cc(Cl)ccc3[nH]c2=O)CC1c1ccc(Cl)cc1` (stereo not drawn) [Compound 36d, 3-(1-Acetyl-5-(4-chlorophenyl)-4,5-dihydro-1H-pyrazol-3-yl)-6-chloro-4-phenylquinolin-2(1H)-one], the “olaparib association (increase of antiproliferative effect of olaparib)” value in data set [1] is “olaparib association = not present”. Also, the EC50 in data set [2] (setting [5]) and in data set [2] (setting [6]) was 10 ± 0.7 µM in each case. The inhibition at 10 µM in data set [3] (Homo sapiens, BXPC-3, 10 μM, BxPC3, 5 h during plasmid transfection) was found to be 24%.
Consider `CC(=O)N1N=C(c2c(-c3ccccc3)c3cc(Cl)ccc3[nH]c2=O)CC1c1ccc(C(C)(C)C)cc1` (stereo not drawn) [Compound 39d, 3-(1-Acetyl-5-(4-(tert-butyl)phenyl)-4,5-dihydro-1H-pyrazol-3-yl)-6-chloro-4-phenylquinolin-2(1H)-one], for which the EC50 in data set [2] (setting [5]) and in data set [2] (setting [6]) was 15 ± 4 µM each time. In addition, the “HR inhibition (in words)” value in data set [3] is recorded as “HR inhibition = NDD ^b”.
Turning to `CC(=O)N1N=C(c2c(-c3ccccc3)c3cc(Cl)ccc3[nH]c2=O)CC1c1ccc2c(ccn2C)c1` (stereo not drawn) [Compound 45d, 3-(1-Acetyl-5-(1-methyl-1H-indol-5-yl)-4,5-dihydro-1H-pyrazol-3-yl)-6-chloro-4-phenylquinolin-2(1H)-one], the EC50 in data set [2] (setting [5]) and in data set [2] (setting [6]) was 18 ± 1 µM in each case. In addition, the “HR inhibition (in words)” value in data set [3] is listed as “HR inhibition = not present”.
As to `CCCn1ncc2cc(C3CC(c4c(-c5ccccc5)c5cc(Cl)ccc5[nH]c4=O)=NN3C(C)=O)ccc21` (stereo not drawn) [Compound 49d, 3-(1-Acetyl-5-(1-propyl-1H-indazol-5-yl)-4,5-dihydro-1H-pyrazol-3-yl)-6-chloro-4-phenylquinolin-2(1H)-one], in data set [1], the “olaparib association (increase of antiproliferative effect of olaparib)” value is given as “olaparib association = not present”. The EC50 in data set [2] (setting [5]) and in data set [2] (setting [6]) was 0.95 ± 0.05 µM throughout. In addition, the “HR inhibition (in words)” value in data set [3] is recorded as “HR inhibition = not present”.
